Test results published in US20080145313A1, “Compositions and Methods for the Treatment and Prevention of Neoplastic Disorders” (Genesis Research & Development Corporation Limited, priority 2006, published 2008).

Test system: target transcript mRNA in A549 cells
Test: Level of mRNA of target transcript in A549 cells by quantitative RT-PCR (Tables 12 and 13)
Format: cell-based, human
Details: 24 h post-transfection
Protocol: A549 cells were transfected as described before with 0.1, 1.0 and 10 nM siRNA as listed in Tables 10 and 11 and the relative mRNA levels quantified 24 h post-transfection. RNA was purified from cells using Trizol® extraction as per the manufacturer's protocol (Invitrogen). cDNA was prepared by digesting approximately 200 ng purified RNA with DNAse I (Invitrogen) for 15 minutes at room temperature, followed by 15 minutes at 65° C. in the presence of 25 mM EDTA. 30 ng random primers were added and incubated for 10 minutes at 65° C., 1 minute on ice; Superscript® III polymerase (Invitrogen) was added in presence of 5 nM DTT (Invitrogen) and 1 mM deoxyribonucleotides (Invitrogen), and the reaction incubated at 25° C. for 5 minutes, followed by an hour at 50° C. cDNA was diluted 1:3 in 10 mM Tris pH 7.0, and quantitative RT-PCR carried out on an ABI Prism 7900HT (Applied Biosciences, Inc., Foster City, Calif.) using FastStart TaqMan SYBRGreen (Roche, Basel, Switzerland) or Platinum SYBR Green (Invitrogen) and 360 nM of the primers specific for gene targets and housekeeping genes HPRT and Lamin. Reduction in target mRNA levels following siRNA transfection are given in Tables 12 and 13, together with the gene specific primer sequences. Primer sequences used for the housekeeping genes HPRT and Lamin are given in SEQ ID NO: 4885-4888.

Substance	mRNA knockdown of energy and metabolism gene target transcript, 0.1 nM (0.1 nM siRNA)	mRNA knockdown of energy and metabolism gene target transcript, 1 nM (1 nM siRNA)	mRNA knockdown of energy and metabolism gene target transcript, 10 nM (10 nM siRNA)	mRNA knockdown of transporter gene target transcript, 0.1 nM (0.1 nM siRNA)	mRNA knockdown of transporter gene target transcript, 1 nM (1 nM siRNA)
3550 (AGGCAACTACCGCGAGCTGCGCTGGTT; chemistry not given here) [compound 3550]	++ (70-90% mRNA knockdown)	++ (70-90% mRNA knockdown)	+++ (>90% mRNA knockdown)		
3551 (AAGGCAACTACCGCGAGCTGCGCTGGTT; chemistry not given here) [compound 3551]	++ (70-90% mRNA knockdown)	− (<50% mRNA knockdown)			
3552 (GAAGGCAACTACCGCGAGCTGCGCTGGTT; chemistry not given here) [compound 3552]	+ (50-70% mRNA knockdown)	++ (70-90% mRNA knockdown)			
3553 (TGAAGGCAACTACCGCGAGCTGCGCTGGTT; chemistry not given here) [compound 3553]	++ (70-90% mRNA knockdown)	++ (70-90% mRNA knockdown)			
3554 (CGGATGTTGGGATCATTATTA; chemistry not given here) [compound 3554]	++ (70-90% mRNA knockdown)	++ (70-90% mRNA knockdown)			
3555 (ACGGATGTTGGGATCATTATTA; chemistry not given here) [compound 3555]	++ (70-90% mRNA knockdown)	++ (70-90% mRNA knockdown)			
3556 (TACGGATGTTGGGATCATTATTA; chemistry not given here) [compound 3556]	++ (70-90% mRNA knockdown)	++ (70-90% mRNA knockdown)			
3557 (CTACGGATGTTGGGATCATTATTA; chemistry not given here) [compound 3557]	++ (70-90% mRNA knockdown)	++ (70-90% mRNA knockdown)			
3558 (GCTACGGATGTTGGGATCATTATTA; chemistry not given here) [compound 3558]	− (<50% mRNA knockdown)	++ (70-90% mRNA knockdown)			
3559 (GGCTACGGATGTTGGGATCATTATTA; chemistry not given here) [compound 3559]	++ (70-90% mRNA knockdown)	++ (70-90% mRNA knockdown)			
3560 (CGGCTACGGATGTTGGGATCATTATTA; chemistry not given here) [compound 3560]	++ (70-90% mRNA knockdown)	++ (70-90% mRNA knockdown)			
3561 (GCGGCTACGGATGTTGGGATCATTATTA; chemistry not given here) [compound 3561]	+ (50-70% mRNA knockdown)	++ (70-90% mRNA knockdown)			
3562 (TGCGGCTACGGATGTTGGGATCATTATTA; chemistry not given here) [compound 3562]	++ (70-90% mRNA knockdown)	+++ (>90% mRNA knockdown)			
3563 (ATGCGGCTACGGATGTTGGGATCATTATTA; chemistry not given here) [compound 3563]	++ (70-90% mRNA knockdown)	+++ (>90% mRNA knockdown)			
3564 (GCAAGAACGGTGGGATTTACT; chemistry not given here) [compound 3564]	++ (70-90% mRNA knockdown)	+++ (>90% mRNA knockdown)			
3565 (AGCAAGAACGGTGGGATTTACT; chemistry not given here) [compound 3565]	++ (70-90% mRNA knockdown)	+++ (>90% mRNA knockdown)			
3572 (GGTCACCAGCAAGAACGGTGGGATTTACT; chemistry not given here) [compound 3572]	+ (50-70% mRNA knockdown)	++ (70-90% mRNA knockdown)			
3573 (TGGTCACCAGCAAGAACGGTGGGATTTACT; chemistry not given here) [compound 3573]	++ (70-90% mRNA knockdown)	+++ (>90% mRNA knockdown)			

Substance	mRNA knockdown of energy and metabolism gene target transcript, 0.1 nM (0.1 nM siRNA)	mRNA knockdown of energy and metabolism gene target transcript, 1 nM (1 nM siRNA)	mRNA knockdown of energy and metabolism gene target transcript, 10 nM (10 nM siRNA)	mRNA knockdown of transporter gene target transcript, 0.1 nM (0.1 nM siRNA)	mRNA knockdown of transporter gene target transcript, 1 nM (1 nM siRNA)
3574 (GCGGTTTTTCTCCAAGTACTC; chemistry not given here) [compound 3574]	++ (70-90% mRNA knockdown)	+++ (>90% mRNA knockdown)			
3575 (AGCGGTTTTTCTCCAAGTACTC; chemistry not given here) [compound 3575]	+++ (>90% mRNA knockdown)	+++ (>90% mRNA knockdown)			
3576 (AAGCGGTTTTTCTCCAAGTACTC; chemistry not given here) [compound 3576]	+++ (>90% mRNA knockdown)	+++ (>90% mRNA knockdown)			
3577 (GAAGCGGTTTTTCTCCAAGTACTC; chemistry not given here) [compound 3577]	++ (70-90% mRNA knockdown)	+++ (>90% mRNA knockdown)			
3578 (TGAAGCGGTTTTTCTCCAAGTACTC; chemistry not given here) [compound 3578]	+ (50-70% mRNA knockdown)	++ (70-90% mRNA knockdown)			
3579 (GTGAAGCGGTTTTTCTCCAAGTACTC; chemistry not given here) [compound 3579]	++ (70-90% mRNA knockdown)	+++ (>90% mRNA knockdown)			
3580 (AGTGAAGCGGTTTTTCTCCAAGTACTC; chemistry not given here) [compound 3580]	++ (70-90% mRNA knockdown)	++ (70-90% mRNA knockdown)			
3584 (ACAGAGGAGCAAGATACAGGC; chemistry not given here) [compound 3584]	++ (70-90% mRNA knockdown)	++ (70-90% mRNA knockdown)			
3585 (AACAGAGGAGCAAGATACAGGC; chemistry not given here) [compound 3585]	++ (70-90% mRNA knockdown)	++ (70-90% mRNA knockdown)			
3586 (AAACAGAGGAGCAAGATACAGGC; chemistry not given here) [compound 3586]	++ (70-90% mRNA knockdown)	+++ (>90% mRNA knockdown)			
3592 (TGCCAAAAACAGAGGAGCAAGATACAGGC; chemistry not given here) [compound 3592]	− (<50% mRNA knockdown)	+ (50-70% mRNA knockdown)			
3593 (TTGCCAAAAACAGAGGAGCAAGATACAGGC; chemistry not given here) [compound 3593]	− (<50% mRNA knockdown)	+ (50-70% mRNA knockdown)			
3594 (CAGGAAGATCCTGCTCATCAG; chemistry not given here) [compound 3594]	− (<50% mRNA knockdown)	+ (50-70% mRNA knockdown)			
3595 (ACAGGAAGATCCTGCTCATCAG; chemistry not given here) [compound 3595]	+ (50-70% mRNA knockdown)	++ (70-90% mRNA knockdown)			
3596 (AACAGGAAGATCCTGCTCATCAG; chemistry not given here) [compound 3596]	+ (50-70% mRNA knockdown)	++ (70-90% mRNA knockdown)			
3597 (CAACAGGAAGATCCTGCTCATCAG; chemistry not given here) [compound 3597]	+ (50-70% mRNA knockdown)	++ (70-90% mRNA knockdown)			
SEQ ID NO: 4914: siRNA targeting SLC19A2 (ThTr1) (chain 1 TTATATAACCAACTGCAAACACAGC; chain 2 UUAUAUAACCAACUGCAAACACAGC; chemistry not given here; one strand in two spellings)				++ (70-90% mRNA knockdown)	+++ (>90% mRNA knockdown)
